# Measurements from article PMC11676667, “Pharmacokinetics of Oral Cannabinoid Δ8-Tetrahydrocannabivarin and Its Main Metabolites in Healthy Participants” (Pharmaceuticals, 2024).
# Assay: Plasma pharmacokinetics after single oral dose of Δ8-THCV in MCT oil (LC-MS/MS, non-compartmental analysis)
# Format: in vivo, human
# Design: Clast (last quantifiable concentration): unit not given here
# Conditions: for Clast (last quantifiable concentration) / tlast (time to last quantifiable concentration) / concentration at 0.5 h / concentration at 1 h / concentration at 2 h / concentration at 4 h / concentration at 6 h / concentration at 8 h: plasma; for plasma concentration: Predose; for concentration at 0.5 h / concentration at 1 h / concentration at 2 h / concentration at 4 h / concentration at 6 h / concentration at 8 h: human, oral
# Protocol: The study was a two-phase, dose-ranging, placebo-controlled trial in 21 healthy participants to assess the safety, tolerability, PK, and PD of an oral formulation of Δ8-THCV. A detailed description of the study was published elsewhere. The study product was a medium-chain triglyceride (MCT) oil oral formulation of Δ8-THCV at a concentration of 50 mg/mL. […] MCT oil was used as placebo.
# Twenty-one participants were enrolled in the clinical study and plasma samples from 15 participants were sent to our laboratory for pharmacokinetic evaluation. Of these, 3 participants were enrolled in Phase 1, an unblinded, placebo-controlled, single ascending dose design and 12 were enrolled in Phase 2, a double-blind, randomized, placebo-controlled, within-participant crossover design. At each study session, participants received one of the following oral doses: placebo, 12.5 mg, 25 mg, 50 mg, 100 mg, and 200 mg of the aforementioned Δ8-THCV formulation in MCT. Study visits were separated by a washout period of a minimum of one week and maximum of 28 days. Participants entered the research facility the night before the session and received the study product in the morning after a standardized high-fat, high-calorie breakfast. PK blood samples included in this analysis were collected prior to dosing and 0.5, 1, 2, 4, 6, and 8 h after dose. Immediately following collection into K2EDTA tubes, blood samples were placed on wet ice, centrifuged, and plasma was immediately frozen at −80 °C until shipment to the bioanalytical laboratory (iC42 Clinical Research and Development, University of Colorado, Aurora, CO, USA) on dry ice.
# Plasma samples were analyzed using a validated high-performance liquid chromatography–tandem mass spectrometry (LC-MS/MS) assay. The assay included Δ8-THCV and its main metabolites 11-OH-Δ8-THCV and Δ8-THCV-COOH, Δ9-THCV and its main metabolite Δ9-THCV-COOH, and Δ9-THC and Δ8-THC as well as their main metabolites (Figure 3). The complete list of analyzed compounds and a summary of the key performance parameters of the assay are presented in Appendix A and Table A1 and Table A2. […] For the PK analysis, concentrations below the lower limit of quantification were set to 0 ng/mL. PK parameters were calculated using non-compartmental analysis (Phoenix WinNonlin version 8.4., Certara, Princeton, NJ, USA). Statistical analysis was carried out using GraphPad Prism (version 10, Boston, MA, USA).
# [1] = 12.5 mg single oral Δ8-THCV in MCT oil, Mean (±SD)
# [2] = 12.5 mg single oral Δ8-THCV in MCT oil, Median (Range)
# [3] = 25 mg single oral Δ8-THCV in MCT oil, Mean (±SD)
# [4] = 25 mg single oral Δ8-THCV in MCT oil, Median (Range)
# [5] = 50 mg single oral Δ8-THCV in MCT oil, Mean (±SD)
# [6] = 50 mg single oral Δ8-THCV in MCT oil, Median (Range)
# [7] = 100 mg single oral Δ8-THCV in MCT oil, Mean (±SD)
# [8] = 100 mg single oral Δ8-THCV in MCT oil, Median (Range)
# [9] = 200 mg single oral Δ8-THCV in MCT oil, Mean (±SD)
# [10] = 200 mg single oral Δ8-THCV in MCT oil, Median (Range)
# [11] = 12.5 mg, 12.5 mg Δ8-THCV dose, Mean (SD, %CV)
# [12] = 12.5 mg, 12.5 mg Δ8-THCV dose, Median (IQ Range)
# [13] = 25 mg, 25 mg Δ8-THCV dose, Mean (SD, %CV)
# [14] = 25 mg, 25 mg Δ8-THCV dose, Median (IQ Range)
# [15] = 50 mg, 50 mg Δ8-THCV dose, Mean (SD, %CV)
# [16] = 50 mg, 50 mg Δ8-THCV dose, Median (IQ Range)
smiles,measurement,setting,value
"CCCc1cc(O)c2c(c1)OC(C)(C)[C@@H]1CC=C(C(=O)O)C[C@@H]21 [Δ8-THCV-COOH, 11-nor-9-carboxy-Δ8-THCV]",Clast (last quantifiable concentration),[1],46.8 (±23)
same,tlast (time to last quantifiable concentration),[1],8 (±0)
same,Clast (last quantifiable concentration),[2],38.2 (20.1–102)
same,tlast (time to last quantifiable concentration),[2],8 (8–8)
same,Clast (last quantifiable concentration),[3],71.6 (±33.8)
same,tlast (time to last quantifiable concentration),[3],8 (±0)
same,Clast (last quantifiable concentration),[4],78.3 (25.5–146)
same,tlast (time to last quantifiable concentration),[4],8 (8–8)
same,Clast (last quantifiable concentration),[5],166 (±60.3)
same,tlast (time to last quantifiable concentration),[5],8 (±0)
same,Clast (last quantifiable concentration),[6],148 (78.9–264)
same,tlast (time to last quantifiable concentration),[6],8 (8–8)
same,Clast (last quantifiable concentration),[7],319 (±118)
same,tlast (time to last quantifiable concentration),[7],8 (±0)
same,Clast (last quantifiable concentration),[8],304 (153–590)
same,tlast (time to last quantifiable concentration),[8],8 (8–8)
same,Clast (last quantifiable concentration),[9],917 (±582)
same,tlast (time to last quantifiable concentration),[9],8 (±0)
same,Clast (last quantifiable concentration),[10],855 (364–2402)
same,tlast (time to last quantifiable concentration),[10],8 (8–8)
same,plasma concentration,"12.5 mg Δ8-THCV dose, Mean (SD, %CV)","0.2 (±0.4, 267) ng/mL"
same,plasma concentration,"12.5 mg Δ8-THCV dose, Median (IQ Range)",0 (0–0) ng/mL
same,plasma concentration,"25 mg Δ8-THCV dose, Mean (SD, %CV)","0.3 (±1, 374) ng/mL"
same,plasma concentration,"25 mg Δ8-THCV dose, Median (IQ Range)",0 (0–0) ng/mL
same,plasma concentration,"50 mg Δ8-THCV dose, Mean (SD, %CV)","0.8 (±1.6, 187) ng/mL"
same,plasma concentration,"50 mg Δ8-THCV dose, Median (IQ Range)",0 (0–0.9) ng/mL
same,plasma concentration,"100 mg Δ8-THCV dose, Mean (SD, %CV)","0.5 (±0.8, 166) ng/mL"
same,plasma concentration,"100 mg Δ8-THCV dose, Median (IQ Range)",0 (0–1) ng/mL
same,plasma concentration,"200 mg Δ8-THCV dose, Mean (SD, %CV)","0.1 (±0.3, 387) ng/mL"
same,plasma concentration,"200 mg Δ8-THCV dose, Median (IQ Range)",0 (0–0) ng/mL
same,median AUClast ratio Δ8-THCV-COOH/Δ8-THCV/11-OH-Δ8-THCV,"after the 200 mg dose, Δ8-THCV = 1",36
same,concentration at 0.5 h,[11],0.4 ng/mL
same,concentration at 0.5 h,[12],0 ng/mL
same,concentration at 1 h,[11],15 ng/mL
same,concentration at 1 h,[12],3 ng/mL
same,concentration at 2 h,[11],30.1 ng/mL
same,concentration at 2 h,[12],15.5 ng/mL
same,concentration at 4 h,[11],84.6 ng/mL
same,concentration at 4 h,[12],73.1 ng/mL
same,concentration at 6 h,[11],62.2 ng/mL
same,concentration at 6 h,[12],53.3 ng/mL
same,concentration at 8 h,[11],46.8 ng/mL
same,concentration at 8 h,[12],38.2 ng/mL
same,concentration at 0.5 h,[13],2.7 ng/mL
same,concentration at 0.5 h,[14],0 ng/mL
same,concentration at 1 h,[13],28.5 ng/mL
same,concentration at 1 h,[14],7.1 ng/mL
same,concentration at 2 h,[13],54.6 ng/mL
same,concentration at 2 h,[14],55.6 ng/mL
same,concentration at 4 h,[13],136 ng/mL
same,concentration at 4 h,[14],108 ng/mL
same,concentration at 6 h,[13],96.3 ng/mL
same,concentration at 6 h,[14],82.6 ng/mL
same,concentration at 8 h,[13],71.6 ng/mL
same,concentration at 8 h,[14],78.3 ng/mL
same,concentration at 0.5 h,[15],4.7 ng/mL
same,concentration at 0.5 h,[16],1.3 ng/mL
same,concentration at 1 h,[15],27.3 ng/mL
same,concentration at 1 h,[16],4.8 ng/mL
same,concentration at 2 h,[15],84.1 ng/mL
same,concentration at 2 h,[16],26.5 ng/mL
same,concentration at 4 h,[15],214 ng/mL
same,concentration at 4 h,[16],177 ng/mL
same,concentration at 6 h,[15],233 ng/mL
same,concentration at 6 h,[16],200 ng/mL
same,concentration at 8 h,[15],166 ng/mL
same,concentration at 8 h,[16],148 ng/mL
same,concentration at 0.5 h,"100 mg, 100 mg Δ8-THCV dose, Mean (SD, %CV)",13 ng/mL
